# Data reported in a melting point compilation (Tetko et al.; mined from patent text by program, amines drawn as free bases though some values may be those of a salt).
row,Compound,melting point
1,c1ccc(C2=NN=C(N3CCOCC3)SC2)cc1,173 to 174 °C
2,C#Cc1ccc2c(c1)C(=O)CC(C)(C)S2,63 to 66 °C
3,CC1=C(C(=O)OC(C)C)C(c2cccc([N+](=O)[O-])c2)N(CCCc2ccccc2)C(=O)N1 (stereo not drawn),150 to 152 °C
4,COc1cc(OC)cc(OCCCCCN2CCC(CNC(=O)c3cc(Cl)c(N)cc3OC)CC2)c1,112 to 113 °C
5,COC(=O)c1cc(-c2ccc3occc3c2)n[nH]c1=O,222 to 225 °C
6,COC(=O)C1C(=O)Nc2ccc(Cl)cc2CC1c1ccc(OC)cc1 (stereo not drawn),189 to 190 °C
7,O=C(CCC(=O)c1ccc(CCNS(=O)(=O)c2ccccc2)cc1)Nc1nnn[nH]1,241 to 242 °C
8,Cc1cc(O)n(C)c(=O)c1C#N,285 °C
9,COC(=O)CC1Sc2ccc(N)cc2CN(CCc2ccccc2)C1=O (stereo not drawn),126 to 129 °C
10,CC(C)=C1C(=O)N(c2cc(F)c(C#N)cc2F)C(=O)C1=C(C)C,144 °C
11,COc1cc(I)cc(OC)c1SC,103 to 104 °C
12,CCS(=O)(=O)Nc1cc(-c2ncnc(C(F)(F)F)c2Cl)c(F)cc1C#N,191 to 194 °C
13,C=CCNC(=O)c1ccc(-n2c(C)ccc2C)cc1Br,136 to 138 °C
14,O=C1c2ccc(Nc3ccc(F)cc3F)cc2CCc2c(OC[C@H](O)CO)cccc21,125 °C
15,CCN1CCN(c2c(F)cc3c(=O)c(C(=O)O)cn(C4CC4)c3c2C#N)CC1,> 300 °C
16,CCn1cc(CC(=O)O)c(OCCCn2cc(C(=O)NCc3ccc(Cl)cc3Cl)c(OC(C)C)n2)n1,138 to 139 °C
17,CC(C)C(CCl)NC(=O)c1nsc2ccc(-n3c(=O)cc(C(F)(F)F)n(C)c3=O)cc12 (stereo not drawn),196 to 197 °C
18,O=P(CN(O)Cc1ccccc1)(OCc1ccccc1)OCc1ccccc1,62 to 64 °C
19,CCN1c2ncc(CCc3ccnc(C(=O)OC)c3)cc2C(=O)N(C)c2ccc(Cl)nc21,149 °C
20,CCOC(=O)CCCNC(=O)c1cc(Br)no1,72 to 73 °C
21,O=C(c1c(F)cccc1F)N1COCN(c2ccc(SC(F)(F)C(F)(F)C(F)(F)F)cc2F)C1=O,44 to 46 °C
22,COc1cc(C2C3=C(COC3=S)N(Cc3ccccc3)c3cc4c(cc32)OCO4)cc(OC)c1OC (stereo not drawn),130 °C
23,CON=C(C(=O)O)c1nc(NC=O)c(Cl)cc1Cl,164 to 165 °C
24,O=C(O)CNC(=O)CSC(=O)c1ccccc1,140 to 142 °C
25,CCc1nc(/C=C/c2cn(-c3ccccc3)nc2O)co1,157 to 159 °C

row,Compound,melting point
1,CC(C)Sc1c(C(N)=O)n(C)c2ccc(OCc3ccccc3)cc12,151 to 154 °C
2,O=S1(=O)c2sccc2C(O)CN1Cc1ccncc1 (stereo not drawn),183 to 185 °C
3,Brc1ccc2[nH]cc(C3=CCNCC3)c2c1,202 to 204 °C
4,CN1CCN(c2cccc3c2C[C@H](NC(=O)c2csc(-c4ccccc4)n2)CC3)CC1,175 to 176 °C
5,O=C(CNc1c(C(=O)O)[nH]c2cc(Cl)cc(Cl)c12)c1cccc(F)c1,270 to 280 °C
6,CCC(C(=O)O)(c1ccc(OCc2ccc3ccccc3n2)cc1)c1ccc(OCc2ccc3ccccc3n2)cc1,83 to 92 °C
7,O=C(O)c1cccc(-c2cccc3cc(Cc4cccc(F)c4)oc23)c1,135 to 136 °C
8,CCN1CCN(CCCC#Cc2cn(Cc3ncc(C)c(OC)c3C)c3nc(N)nc(Cl)c23)CC1,142 to 144 °C
9,CCOC(=Nc1nc(C)cc(OC)n1)NS(=O)(=O)c1ccccc1OC(F)F,131 to 133 °C
10,CCCCCCCCCCCCC(O)CNCCCCCCNCC(O)CCCCCCCCCCCC (stereo not drawn),118 to 121 °C
11,COc1ccc(N(CCCC(=O)O)C(=O)CCN(C(C)=O)c2c(C)cccc2C)cc1,90 to 92 °C
12,COc1cc(Cc2cnc(N)nc2N)ccc1N,210 to 212 °C
13,CCOC(=O)CC(=O)c1cc(F)c(S(=O)(=O)CC)nc1Nc1ccc(F)cc1F,113 to 114 °C
14,COc1ccc(-c2ccc(C(=O)Nc3ccc4cc(CN5CCCCC5)cnc4c3C)c(F)c2)cc1,191 to 192 °C
15,O=C(CCc1ccncc1)c1c(O)c2cccnc2n(-c2ccccc2)c1=O,206 to 208 °C
16,O=c1[nH]c(-c2c[nH]c3ccccc23)nc2ccc(N3CCCCC3)cc12,> 300 °C
17,CCN(CC)C(=O)c1ccc(CCCCOCCCCCCN(Cc2ccccc2)CC(O)c2ccc(O)c3[nH]c(=O)ccc23)cc1 (stereo not drawn),101 to 103 °C
18,O=C(c1ccccc1)c1ccc2sc(NCCCO)nc2c1,162 °C
19,O=C(N[C@H]1CCN(C(=O)c2cc(C(F)(F)F)cc(C(F)(F)F)c2)[C@H](Cc2ccc(Cl)cc2)C1)c1cc(O)nc2ccccc12,222 to 224 °C
20,COC(=O)CCCc1cc2cc(Cl)ccc2n1S(=O)(=O)c1ccc2c(c1)CN(C(C)=O)CC2,50 to 52 °C
21,COC(=O)c1ccc2cc(-c3ccc(OC)cc3)oc2c1,163 to 164 °C
22,COc1cccc(C(=O)O)c1OCCN1CCC(c2cn(Cc3ccoc3)c3cnccc23)CC1,303 to 304 °C
23,CS(=O)(=O)OCCNC(=O)C(O)C(Oc1ccccc1[N+](=O)[O-])c1ccccc1 (stereo not drawn),122 to 125 °C
24,O=C1CCC(N2C(=O)c3cccc(NCC(=O)NC4CC4)c3C2=O)C(=O)N1 (stereo not drawn),240 to 242 °C
25,CCOC(=O)C(=CNC(C)(C)C)C(=O)c1cc(F)c(Cl)cc1Cl,87 °C

row,Compound,melting point
1,Cn1cc(C(N)=O)c(=O)c2ccc(C(C)(C)C)cc21,268 to 270 °C
2,Cc1ccc(NC(=O)c2cccc(N3CCOCC3)c2)cc1[N+](=O)[O-],149 to 150 °C
3,Nc1ccc(N2CCc3ccncc3C2)cc1,> 220 °C
4,CC(C)(C)c1cc2c(c(C(C)(C)C)c1)OC(=O)C2c1ccc(OCCO)cc1 (stereo not drawn),132 to 135 °C
5,CC1N=C(N(C)N)NN=C1c1ccccc1 (stereo not drawn),140 to 141 °C
6,Nc1ccccc1-c1nnc(-c2ccc(C(=O)O)cc2)o1,> 300 °C
7,COc1ccc(C2(COC(C)=O)CCC(=O)CC2)cc1,86.5 to 88 °C
8,Cc1ccc2c(c1)/C(=N\NC(=O)NCc1ccccc1)C(=O)N2CCN(C(C)C)C(C)C,159 to 160 °C
9,c1ccc2c(c1)CC(N1CCN(c3ccc4c(c3)OCCO4)CC1)C2,183 to 185 °C
10,O=C(NC(c1ccccc1)C(O)C(=O)OCc1ccccc1)c1ccccc1 (stereo not drawn),129 to 131 °C
11,CCCCCCCCc1sc(NC(=O)c2cc3cc(C)cc(C)c3n2Cc2cccc(C(=O)O)c2)nc1-c1cc(OC)c(Cl)cc1OC,195 to 197 °C
12,Cn1cc2c3c(cccc31)C(=O)NCC2,194 to 195 °C
13,O=C(O)c1ccccc1Oc1ccc(Cl)cn1,159 °C
14,FC(F)(F)c1ccc(NC(=S)Nc2ncccc2OCc2ccccc2)cc1,165 to 167 °C
15,CCOC(=O)c1ncn(-c2nncs2)c1Cl,184 to 185 °C
16,CC(C)(C)OC(=O)N[C@@H]1C(=O)N2C(C(=O)OC(C)(C)C)=C(C=O)CC[C@H]12,194 to 195 °C
17,CCCCCCCCCCCCC1=C(OC)C(=O)c2ccccc2C1=O,61 to 63 °C
18,CN1C(=O)CC[C@]2(C)c3ccc(Sc4ccc(-c5ccccc5)nn4)cc3CC[C@@H]12,199 to 200 °C
19,CCn1cc(C2(c3cccc(-c4cncc(Cl)c4)c3)N=C(N)N(C)C2=O)cn1 (stereo not drawn),205 to 210 °C
20,CCOC(=O)Cc1ccc(-n2c(-c3cccnc3N)nc3ccc(-c4cccnc4)nc32)cc1,155 to 157 °C
21,Cc1ccccc1-c1cc(=O)c(C)c(-c2ccccc2)n1-c1ccccc1,188 to 191 °C
22,CCOCCn1cccc1-c1nc(-c2ccc(OC)cc2)c(-c2ccc(OC)cc2)s1,68 to 71 °C
23,OCC1CC(O)C(n2cnc3cc(Cl)c(Cl)cc32)C1 (stereo not drawn),244 to 245 °C
24,CCCCc1nc2ccccc2n1-c1ccc(O)cc1,192 to 194 °C
25,O=C(N[C@@H](CSC(=O)OCc1ccccc1)C(=O)O)OCc1ccccc1,93 to 94 °C

row,Compound,melting point
1,O=c1[nH]c(=S)nc2n1C(c1ccc(F)cc1)CO2 (stereo not drawn),211 to 217 °C
2,O=c1ccoc(C(O)c2ccc3ccccc3c2)c1OCc1ccccc1 (stereo not drawn),159 to 160 °C
3,COC(=O)CCOc1ccccc1CNC(=O)C1Cc2ccccc2N1S(=O)(=O)c1ccc(-c2cccc(C(F)(F)F)c2)cc1 (stereo not drawn),131 °C
4,CCOC(=O)C1CCc2c([nH]c3ccc(N(C)C)cc23)C1 (stereo not drawn),100 to 101 °C
5,OCc1cn(-c2ccc(OC(F)(F)F)cc2)cn1,105 to 106 °C
6,N#Cc1cc(Cl)c(Cl)c(-c2ccc(Cl)cc2)n1,142 to 145 °C
7,CC(C)(C)c1cc(C=C2SCN(C3CC3)C2=O)cc(C(C)(C)C)c1O,162 to 164 °C
8,CC(=O)C(=O)Oc1c(C)cc(Nc2ccn(-c3ccccc3)n2)cc1C,123 to 125 °C
9,CCOC(=O)c1ccc(C#CCO)cc1,58 to 60 °C
10,CCc1nc(/C=C\c2cn(-c3ccccc3)nc2OCc2ccc(OCc3csc(N4CCCCC4)n3)c(OC)c2)cs1,93 to 94 °C
11,COc1cc(Nc2c(C#N)cnc3cc(C#CCN(C)C)sc23)c(Cl)cc1Cl,164 to 166 °C
12,O=C(O)c1ccccc1Nc1cccc(/C=C/c2nc3ccccc3s2)c1,146 to 150 °C
13,CC1CCCN(c2cc3nc(C(C)(C)C)sc3cc2N)C1 (stereo not drawn),108 to 112 °C
14,O=C(Nc1ccccc1O)C(=O)Nc1ccccc1O,> 250 °C
15,CCn1cc(C(=O)O)c(=O)c2cc(F)c(N3CCC(CNC)C3)nc21 (stereo not drawn),251 to 253 °C
16,CCOC(=O)C1=C(COCCNS(=O)(=O)NC(=O)c2ccco2)NC(C)=C(C(=O)OC)C1c1ccccc1Cl (stereo not drawn),138 °C
17,CCc1nc2cc(C(F)(F)F)c(Cl)cc2n1-c1ccc(CCOC(=O)NS(=O)(=O)c2cn(C)cn2)cc1,204 °C
18,CC(C)C(=O)NC1CCc2c(c3cc(-c4nnc(N)s4)ccc3n2Cc2cccc(F)c2)C1 (stereo not drawn),251 to 254 °C
19,CCCCCCCCCCCCCCCCCCN(C)c1ccc(N)cc1C(=O)O,81 to 83 °C
20,CCCOc1c(-c2cc(C=CC(=O)O)ccc2O)cc(C(C)(C)C)cc1C(C)(C)C,104 to 106 °C
21,O=c1[nH]nc(Cc2ccc([N+](=O)[O-])cc2)o1,170 to 171 °C
22,CC(=NO)c1csc(S(N)(=O)=O)c1,185 to 188 °C
23,O=c1[nH]c2cscc2c(=O)n1CCCCN1CCN(c2cccc(C(F)(F)F)c2)CC1,126 to 128 °C
